One data set deals with recombinant human HDAC6 (Homo sapiens (Human), UniProt Q9UBN7). Put plainly: Enzymatic screening, HDAC6 inhibition (fluorogenic FdL_G substrate). The format is biochemical. A digest of the protocol: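 Enzyme was preincubated with compound (8 doses, triplicate, 1% DMSO) in 25 mM Tris-HCl pH 8, 130 mM NaCl, 0.05% Tween-20, 10% glycerol, with BSA. A FLUOR DE LYS-Green substrate was then added, and fluorescence was read after developer plus 2 μM TSA.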

The next data set addresses recombinant human HDAC1 (Homo sapiens (Human), UniProt Q13547). Briefly: Enzymatic screening, HDAC1 inhibition (fluorogenic FdL_G substrate). The format is biochemical. The gist of the method:
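Recombinant human HDAC1 inhibition was measured fluorometrically using the FLUOR DE LYS-Green (FdL_G) substrate. Compounds at 8 doses (1% DMSO final) in Tris-HCl pH 8 buffer with NaCl, Tween-20 and glycerol were preincubated in triplicate with enzyme and 1 mg/mL BSA, then given substrate. Developer I plus 2 μM TSA was added, and fluorescence read after 25 minutes in the dark.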

A further data set is described as follows: Stability in rat plasma. As to conditions: after 4 hours, 37° C.
Data set [1] in a line: Stability in human plasma. Conditions: after 4 hours, 37° C.
Procedure: In order to evaluate the stability to circulating enzymes, test compounds were incubated in human and rat plasma at 37° C. in a thermostated oscillating bath. Each test compound was incubated at μM concentration (50 μM when the samples were analysed by UV/HPLC, 1 or 2 μM when the samples were analysed by LC-MS/MS) for 0, 15, 30 minutes and 1, 2 and 4 hours. The reaction was stopped placing samples on ice bath and adding acidified acetonitrile. After centrifugation (10 minutes at 14000 rpm) an aliquot of the supernatant was diluted with water, filtered with 0.45 μm regenerated cellulose syringe filters and injected in HPLC-UV or in LC-MS/MS. The percentage of the remaining amount at the various incubation times with respect to the initial amount were calculated. The half-life in plasma was also calculated.
Data set [2] is described as follows: Stability to Phase I metabolism in rat S9 liver fraction. As to conditions: after 90 minutes, 37° C.
Data set [3] can be described thus: Stability to Phase I metabolism in human S9 liver fraction. Conditions: after 90 minutes, 37° C.

Structures are written as SMILES.

For orientation: IC50 means the concentration at which inhibition is half-maximal.

recombinant human HDAC6, sequence (Q9UBN7 whole entry): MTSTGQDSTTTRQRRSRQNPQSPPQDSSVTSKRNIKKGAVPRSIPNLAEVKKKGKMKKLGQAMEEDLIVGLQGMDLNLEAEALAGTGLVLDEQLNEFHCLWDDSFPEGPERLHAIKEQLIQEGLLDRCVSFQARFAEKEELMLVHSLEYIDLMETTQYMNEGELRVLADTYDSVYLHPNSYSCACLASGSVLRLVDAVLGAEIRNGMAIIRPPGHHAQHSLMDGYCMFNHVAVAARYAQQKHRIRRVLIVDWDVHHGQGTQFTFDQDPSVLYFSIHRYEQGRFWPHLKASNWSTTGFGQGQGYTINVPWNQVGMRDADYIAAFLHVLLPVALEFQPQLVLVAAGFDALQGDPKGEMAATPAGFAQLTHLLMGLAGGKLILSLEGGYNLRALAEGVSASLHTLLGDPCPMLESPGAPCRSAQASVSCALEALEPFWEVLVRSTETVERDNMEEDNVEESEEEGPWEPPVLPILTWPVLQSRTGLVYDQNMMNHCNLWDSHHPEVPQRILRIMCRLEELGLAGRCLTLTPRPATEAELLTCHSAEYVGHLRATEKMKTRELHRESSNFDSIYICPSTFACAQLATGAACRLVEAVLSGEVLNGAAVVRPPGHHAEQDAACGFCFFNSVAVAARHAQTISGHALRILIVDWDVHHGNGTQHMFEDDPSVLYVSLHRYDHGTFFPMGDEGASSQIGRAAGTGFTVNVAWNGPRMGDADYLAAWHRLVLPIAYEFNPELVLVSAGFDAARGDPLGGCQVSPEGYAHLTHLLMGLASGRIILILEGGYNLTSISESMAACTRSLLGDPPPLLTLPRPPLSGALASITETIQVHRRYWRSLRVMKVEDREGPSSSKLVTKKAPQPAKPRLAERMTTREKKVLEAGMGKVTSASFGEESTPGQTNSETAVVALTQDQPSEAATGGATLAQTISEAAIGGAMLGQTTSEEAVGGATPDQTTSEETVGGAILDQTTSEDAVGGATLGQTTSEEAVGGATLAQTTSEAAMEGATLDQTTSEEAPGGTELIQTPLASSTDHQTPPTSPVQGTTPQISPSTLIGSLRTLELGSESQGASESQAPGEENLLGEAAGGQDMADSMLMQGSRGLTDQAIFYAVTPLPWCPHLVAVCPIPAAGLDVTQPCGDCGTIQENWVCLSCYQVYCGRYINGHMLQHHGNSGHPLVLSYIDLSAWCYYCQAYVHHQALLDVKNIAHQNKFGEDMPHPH
recombinant human HDAC1, sequence (Q13547 whole entry): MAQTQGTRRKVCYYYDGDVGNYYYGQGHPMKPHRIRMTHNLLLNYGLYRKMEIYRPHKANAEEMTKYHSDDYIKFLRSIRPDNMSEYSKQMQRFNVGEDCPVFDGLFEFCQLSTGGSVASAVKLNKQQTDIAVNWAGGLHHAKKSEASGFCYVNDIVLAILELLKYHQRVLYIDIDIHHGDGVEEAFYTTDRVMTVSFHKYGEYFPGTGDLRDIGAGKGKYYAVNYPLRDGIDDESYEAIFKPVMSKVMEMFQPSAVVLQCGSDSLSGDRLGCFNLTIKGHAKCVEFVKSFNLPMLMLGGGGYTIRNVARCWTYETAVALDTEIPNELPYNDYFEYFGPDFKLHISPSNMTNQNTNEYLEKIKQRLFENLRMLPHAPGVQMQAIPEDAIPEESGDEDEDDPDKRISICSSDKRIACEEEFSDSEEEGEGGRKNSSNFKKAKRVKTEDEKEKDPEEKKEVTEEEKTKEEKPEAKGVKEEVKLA

With `NC(=O)c1cc(-c2nnn(Cc3ccc(-c4nnc(C(F)F)o4)cc3)n2)cnc1N` [compound 76, 2-amino-5-(2-(4-(5-(difluoromethyl)-1,3,4-oxadiazol-2-yl)benzyl)-2H-tetrazol-5-yl)nicotinamide], the figures for the IC50 at recombinant human HDAC6 and at recombinant human HDAC1 were 32 nM and above 200000 nM, respectively. The “residual percentage in RAT PLASMA” value in the data set “Stability in rat plasma” stood at 73%. In addition, in data set [1], the “residual percentage in HUMAN PLASMA” value is 74%. In addition, the “residual percentage in RAT S9 FRACTION” value in data set [2] is on record as 89%. For the same molecule, the “residual percentage in HUMAN S9 FRACTION” value in data set [3] is given as 53%.

Take `CS(=O)(=O)NCCC(c1ccc(-c2nnc(C(F)F)o2)cc1)c1cn(-c2ccc(N)nc2)nn1` (stereo not drawn) [Compd. 62, N-{3-[1-(6-aminopyridin-3-yl)-1H-1,2,3-triazol-4-yl]-3-{4-[5-(difluoromethyl)-1,3,4-oxadiazol-2-yl]phenyl}propyl}methanesulfonamide]: the IC50 at recombinant human HDAC6 was 27 nM; on recombinant human HDAC1, above 200000 nM. The “residual percentage in RAT PLASMA” value in “Stability in rat plasma” turned out to be 69%. Further, in data set [1], the “residual percentage in HUMAN PLASMA” value is 88%. In data set [2], the “residual percentage in RAT S9 FRACTION” value is given as 86%. Further, the “residual percentage in HUMAN S9 FRACTION” value in data set [3] is reported as 95%.

For `FC(F)c1nnc(-c2ccc(Cn3cc(-c4ccc5[nH]c(N6CCOCC6)nc5c4)nn3)cc2)o1` [Compd. 174, 4-(5-(1-(4-(5-(difluoromethyl)-1,3,4-oxadiazol-2-yl)benzyl)-1H-1,2,3-triazol-4-yl)-1H-benzo[d]imidazol-2-yl)morpholine], the concentration for half-maximal inhibition (IC50) at recombinant human HDAC6 was 87 nM; at recombinant human HDAC1, above 200000 nM. Further, the “residual percentage in RAT PLASMA” value in “Stability in rat plasma” amounted to 80%. The “residual percentage in HUMAN PLASMA” value in data set [1] is 88%. The “residual percentage in RAT S9 FRACTION” value in data set [2] is listed as 72%. For the same molecule, the “residual percentage in HUMAN S9 FRACTION” value in data set [3] was found to be 91%.

Regarding `CC(=O)c1cccc(-c2nnn(Cc3ccc(-c4nnc(C(F)F)o4)cc3)n2)c1` [compound 140, 1-(3-(2-(4-(5-(difluoromethyl)-1,3,4-oxadiazol-2-yl)benzyl)-2H-tetrazol-5-yl)phenyl)ethan-1-one], the figures for the IC50 on recombinant human HDAC6 and at recombinant human HDAC1 were 55 nM and above 200000 nM, respectively. Besides, the “residual percentage in RAT PLASMA” value in “Stability in rat plasma” was 58%. Further, the “residual percentage in HUMAN PLASMA” value in data set [1] stood at 99%. For the same molecule, the “residual percentage in RAT S9 FRACTION” value in data set [2] came out at 0%. The “residual percentage in HUMAN S9 FRACTION” value in data set [3] was found to be 87%.

On to `Nc1ccc(-c2cn(Cc3ccc(-c4nnc(C(F)F)o4)cc3)cn2)cn1` [compound 151, 5-(1-(4-(5-(difluoromethyl)-1,3,4-oxadiazol-2-yl)benzyl)-1H-imidazol-4-yl)pyridin-2-amine], for which the IC50 on recombinant human HDAC6 is 65 nM; on recombinant human HDAC1, above 200000 nM. In addition, in “Stability in rat plasma”, the “residual percentage in RAT PLASMA” value is listed as 97%. Moreover, the “residual percentage in HUMAN PLASMA” value in data set [1] came out at 98%. For the same molecule, the “residual percentage in RAT S9 FRACTION” value in data set [2] is 79%. The “residual percentage in HUMAN S9 FRACTION” value in data set [3] is recorded as 83%.

Regarding `Fc1cc(-c2nnc(C(F)F)o2)cc(F)c1Cn1cc(-c2cccs2)nn1` [compound 122, 2-(3,5-difluoro-4-((4-(thiophen-2-yl)-1H-1,2,3-triazol-1-yl)methyl)phenyl)-5-(difluoromethyl)-1,3,4-oxadiazole], the IC50 at recombinant human HDAC6 is 46 nM; on recombinant human HDAC1, above 200000 nM. Also, the “residual percentage in RAT PLASMA” value in “Stability in rat plasma” came out at 84%. In addition, in data set [1], the “residual percentage in HUMAN PLASMA” value is recorded as 88%. In addition, the “residual percentage in RAT S9 FRACTION” value in data set [2] was 10%. The “residual percentage in HUMAN S9 FRACTION” value in data set [3] stood at 78%.

Turning to `Cc1ncc(-c2nnn(Cc3ccc(-c4nnc(C(F)F)o4)cc3)n2)cc1N` [compound 65, 5-(2-(4-(5-(difluoromethyl)-1,3,4-oxadiazol-2-yl)benzyl)-2H-tetrazol-5-yl)-2-methylpyridin-3-amine], the IC50 at recombinant human HDAC6 is 28 nM; at recombinant human HDAC1, above 200000 nM. Further, the “residual percentage in RAT PLASMA” value in “Stability in rat plasma” is listed as 76%. For the same molecule, the “residual percentage in HUMAN PLASMA” value in data set [1] worked out at 94%. Besides, in data set [2], the “residual percentage in RAT S9 FRACTION” value was determined as 35%. In addition, the “residual percentage in HUMAN S9 FRACTION” value in data set [3] worked out at 99%.

As to `O=C(Nc1cccc(-c2cn(Cc3ccc(-c4nnc(C(F)F)o4)cn3)cn2)c1)N1CCOCC1` [compound 264, N-(3-(1-((5-(5-(difluoromethyl)-1,3,4-oxadiazol-2-yl)pyridin-2-yl)methyl)-1H-imidazol-4-yl)phenyl)morpholine-4-carboxamide], the IC50 at recombinant human HDAC6 was 19 nM; on recombinant human HDAC1, above 200000 nM. Besides, in the data set “Stability in rat plasma”, the “residual percentage in RAT PLASMA” value came to 94%. For the same molecule, the “residual percentage in HUMAN PLASMA” value in data set [1] is reported as 80%. Besides, in data set [2], the “residual percentage in RAT S9 FRACTION” value amounted to 92%. In addition, in data set [3], the “residual percentage in HUMAN S9 FRACTION” value is reported as 93%.

`CCNc1nc2ccc(-c3cn(Cc4ccc(-c5nnc(C(F)F)o5)cc4)nn3)cc2[nH]1` [compd. 60, 6-(1-(4-(5-(difluoromethyl)-1,3,4-oxadiazol-2-yl)benzyl)-1H-1,2,3-triazol-4-yl)-N-ethyl-1H-benzo[d]imidazol-2-amine]: the values for the IC50 at recombinant human HDAC6 and on recombinant human HDAC1 were 26 nM and 32900 nM, respectively. Also, the “residual percentage in RAT PLASMA” value in the data set “Stability in rat plasma” was 81%. In addition, the “residual percentage in HUMAN PLASMA” value in data set [1] is 76%. For the same molecule, the “residual percentage in RAT S9 FRACTION” value in data set [2] is given as 94%. Moreover, the “residual percentage in HUMAN S9 FRACTION” value in data set [3] is given as 70%.

Take `CCCCC(c1ccc(-c2nnc(C(F)F)o2)cc1)n1cc(-c2ccc(N)nc2)nn1` (stereo not drawn) [compound 235, 5-(1-(1-(4-(5-(difluoromethyl)-1,3,4-oxadiazol-2-yl)phenyl)pentyl)-1H-1,2,3-triazol-4-yl)pyridin-2-amine]: the IC50 on recombinant human HDAC6 is 202 nM; on recombinant human HDAC1, above 200000 nM. Moreover, the “residual percentage in RAT PLASMA” value in the data set “Stability in rat plasma” was determined as 84%. Further, the “residual percentage in HUMAN PLASMA” value in data set [1] came to 90%. Further, the “residual percentage in RAT S9 FRACTION” value in data set [2] worked out at 63%. The “residual percentage in HUMAN S9 FRACTION” value in data set [3] is recorded as 92%.

Regarding `FC(F)c1nnc(-c2ccc(Cn3nnnc3-c3csc4ccccc34)cc2)o1` [compound 288, 2-(4-((5-(benzo[b]thiophen-3-yl)-1H-tetrazol-1-yl)methyl)phenyl)-5-(difluoromethyl)-1,3,4-oxadiazole], the IC50 on recombinant human HDAC6 was 355 nM; at recombinant human HDAC1 it was above 200000 nM. The “residual percentage in RAT PLASMA” value in “Stability in rat plasma” worked out at 86%. Also, in data set [1], the “residual percentage in HUMAN PLASMA” value is on record as 78%. Also, the “residual percentage in RAT S9 FRACTION” value in data set [2] was 9%. For the same molecule, the “residual percentage in HUMAN S9 FRACTION” value in data set [3] is 54%.

For `Nc1ncc(-c2nnn(Cc3ccc(-c4nnc(C(F)F)o4)cc3)n2)cn1` [compound 79, 5-(2-(4-(5-(difluoromethyl)-1,3,4-oxadiazol-2-yl)benzyl)-2H-tetrazol-5-yl)pyrimidin-2-amine], the IC50 is 33 nM on recombinant human HDAC6 and above 200000 nM on recombinant human HDAC1. Further, the “residual percentage in RAT PLASMA” value in the data set “Stability in rat plasma” was 77%. Moreover, the “residual percentage in HUMAN PLASMA” value in data set [1] came out at 85%. Moreover, in data set [2], the “residual percentage in RAT S9 FRACTION” value was found to be 78%. For the same molecule, the “residual percentage in HUMAN S9 FRACTION” value in data set [3] turned out to be 96%.

In the case of `CCC[C@@H](c1ccc(-c2nnc(C(F)F)o2)cc1)n1cc(-c2ccc(N)nc2)nn1` [compound 250, (S)-5-(1-(1-(4-(5-(difluoromethyl)-1,3,4-oxadiazol-2-yl)phenyl)butyl)-1H-1,2,3-triazol-4-yl)pyridin-2-amine], the results for the IC50 on recombinant human HDAC6 and at recombinant human HDAC1 were 293 nM and above 200000 nM, respectively. The “residual percentage in RAT PLASMA” value in “Stability in rat plasma” stood at 82%. Moreover, in data set [1], the “residual percentage in HUMAN PLASMA” value is given as 91%. The “residual percentage in RAT S9 FRACTION” value in data set [2] came out at 89%. In data set [3], the “residual percentage in HUMAN S9 FRACTION” value was determined as 88%.

(Values after patent US20230286970A1, “NOVEL OXADIAZOLE-BASED SELECTIVE HDAC6 INHIBITORS” (ITALFARMACO S.P.A., priority 2020, published 2023).)
